The text below walks through data of EP0522502A1, “Inhibitors of sucrase activity from tea” (MITSUI NORIN CO., LTD., priority 1991, dated 1993).

One data set deals with T1, Sucrase (Rattus norvegicus, UniProt P23739).
T1 construct: Sucrase was prepared from the mucous membrane of the small intestines of Wistar rats; from tissue; host or cells: mucous membrane of the small intestine of Wistar rats
Put plainly: Sucrase activity inhibition (Dahlquist enzyme preparation, Bernfeld sugar determination). The format is biochemical, Wistar rats. Conditions: for Inhibition (%): final concentration of 5x10⁻⁴ M, substrate 60mM sucrose solution, 37 °C for 15 minutes, control (distilled water) = 100% activity; for sucrase activity inhibiting capacity: verbal summary of Table 1, 5x10⁻⁴ M. On the procedure: The value thus measured was converted into the amount of decomposed sucrose, and the reaction speed was calculated using a standard method. The reaction speed of the control case (where distilled water was added instead of the sample solution) was also obtained in the same manner. Sucrase activity in the control case was calculated to be 100%. The percentage inhibition of the samples, each at a final concentration of 5x10⁻⁴ M, were obtained.

The test system of a further data set is male ICR mice. Put plainly: Acute toxicity test (LD50 by Van der Waerden method). The format is in vivo. Conditions: intraabdominal administration. On the procedure: An acute toxicity test of the sucrase activity inhibitor of the present invention was carried out using male ICR mice. LD₅₀ was calculated by the Van der Waerden method.

T1 sequence (P23739 whole entry): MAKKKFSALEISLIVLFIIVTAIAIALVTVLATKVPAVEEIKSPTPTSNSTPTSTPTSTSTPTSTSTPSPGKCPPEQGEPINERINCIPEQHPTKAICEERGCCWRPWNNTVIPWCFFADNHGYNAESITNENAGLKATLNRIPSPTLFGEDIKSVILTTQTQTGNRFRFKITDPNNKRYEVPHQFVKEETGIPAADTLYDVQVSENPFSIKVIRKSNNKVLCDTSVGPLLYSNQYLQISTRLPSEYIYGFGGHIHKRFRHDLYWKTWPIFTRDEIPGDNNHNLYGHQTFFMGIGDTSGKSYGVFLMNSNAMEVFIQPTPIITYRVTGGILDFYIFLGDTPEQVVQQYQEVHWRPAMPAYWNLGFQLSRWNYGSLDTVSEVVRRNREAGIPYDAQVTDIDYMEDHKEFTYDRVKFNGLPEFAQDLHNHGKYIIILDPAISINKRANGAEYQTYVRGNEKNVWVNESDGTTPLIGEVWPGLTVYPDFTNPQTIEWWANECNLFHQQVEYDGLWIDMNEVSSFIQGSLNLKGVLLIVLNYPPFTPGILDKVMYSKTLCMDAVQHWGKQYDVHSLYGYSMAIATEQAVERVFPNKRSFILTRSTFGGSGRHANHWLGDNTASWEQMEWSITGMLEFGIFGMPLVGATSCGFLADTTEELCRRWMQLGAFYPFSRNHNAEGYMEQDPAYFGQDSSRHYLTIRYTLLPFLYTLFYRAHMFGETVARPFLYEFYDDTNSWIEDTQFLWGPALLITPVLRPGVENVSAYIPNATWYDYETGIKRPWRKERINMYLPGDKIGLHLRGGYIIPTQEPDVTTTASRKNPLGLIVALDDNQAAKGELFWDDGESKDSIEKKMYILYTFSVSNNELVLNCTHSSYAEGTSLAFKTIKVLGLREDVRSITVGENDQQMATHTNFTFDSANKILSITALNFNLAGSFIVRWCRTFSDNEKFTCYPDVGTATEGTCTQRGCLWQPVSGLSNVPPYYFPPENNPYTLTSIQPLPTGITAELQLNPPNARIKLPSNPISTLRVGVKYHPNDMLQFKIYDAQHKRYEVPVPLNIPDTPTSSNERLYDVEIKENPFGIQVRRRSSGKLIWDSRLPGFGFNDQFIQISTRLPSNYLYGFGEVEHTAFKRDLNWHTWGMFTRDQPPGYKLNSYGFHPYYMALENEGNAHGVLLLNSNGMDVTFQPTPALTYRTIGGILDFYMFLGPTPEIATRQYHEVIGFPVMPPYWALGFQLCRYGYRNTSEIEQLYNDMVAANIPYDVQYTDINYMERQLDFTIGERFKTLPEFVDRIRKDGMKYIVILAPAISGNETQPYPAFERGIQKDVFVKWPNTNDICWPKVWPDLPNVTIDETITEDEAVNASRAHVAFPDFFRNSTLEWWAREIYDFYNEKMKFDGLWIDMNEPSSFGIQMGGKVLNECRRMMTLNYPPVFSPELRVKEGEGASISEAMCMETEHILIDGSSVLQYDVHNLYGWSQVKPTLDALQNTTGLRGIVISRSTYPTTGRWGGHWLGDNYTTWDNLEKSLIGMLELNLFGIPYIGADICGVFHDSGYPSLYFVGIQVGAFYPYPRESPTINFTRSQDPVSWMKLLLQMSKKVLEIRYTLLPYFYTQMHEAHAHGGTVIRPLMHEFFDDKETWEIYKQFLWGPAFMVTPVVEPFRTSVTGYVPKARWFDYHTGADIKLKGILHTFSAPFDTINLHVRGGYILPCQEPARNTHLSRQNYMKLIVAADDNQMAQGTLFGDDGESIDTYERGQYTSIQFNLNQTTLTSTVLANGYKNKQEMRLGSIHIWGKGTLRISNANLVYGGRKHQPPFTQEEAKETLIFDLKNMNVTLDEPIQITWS

As for `Oc1cc(O)c2c(c1)O[C@H](c1ccc(O)c(O)c1)[C@@H](O)C2` [(+)Catechin, reference compound], the “Inhibition (%)” value at Sucrase came to 13.7%.

For `O=C(O[C@@H]1Cc2c(O)cc(O)cc2O[C@@H]1c1ccc(O)c(O)c1)c1cc(O)c(O)c(O)c1` [Epicatechin Gallate, (-) Epicatechin Gallate], the “Inhibition (%)” value on Sucrase is 62.5%.

In the case of `Oc1cc(O)c2c(c1)O[C@H](c1ccc(O)c(O)c1)[C@H](O)C2` [Epicatechin, (-) Epicatechin], at Sucrase, the “Inhibition (%)” value stood at 14.7% and the “sucrase activity inhibiting capacity” value is listed as “only slight”.

For the compound `O=C(O[C@@H]1Cc2c(O)cc(O)cc2O[C@@H]1c1cc(O)c(O)c(O)c1)c1cc(O)c(O)c(O)c1` [Epigallocatechin Gallate, (-) Epigallocatechin Gallate], on Sucrase, the “Inhibition (%)” value was determined as 78.8%. For the same compound, in the data set on male ICR mice, the “LD₅₀(reliable limit)” value was determined as 150 mg/kg.

Turning to `Oc1cc(O)c2c(c1)O[C@H](c1cc(O)c(O)c(O)c1)[C@H](O)C2` [Epigallocatechin, (-) Epigallocatechin], on Sucrase, the “Inhibition (%)” value came to 17.3% and the “sucrase activity inhibiting capacity” value was “only slight”.

Consider `O=c1c(O)cc([C@H]2Oc3cc(O)cc(O)c3C[C@H]2O)cc2c([C@H]3Oc4cc(O)cc(O)c4C[C@H]3O)cc(O)c(O)c12` [Free Theaflavin], for which, at Sucrase, the “Inhibition (%)” value was found to be 6.8% and the “sucrase activity inhibiting capacity” value is “only slight”.

Turning to `O=C(O)c1cc(O)c(O)c(O)c1` [Gallic Acid, reference compound], the “Inhibition (%)” value at Sucrase turned out to be 6.7%.

As for `O=C(O[C@@H]1Cc2c(O)cc(O)cc2O[C@@H]1c1cc(O)c(=O)c2c(O)c(O)cc([C@H]3Oc4cc(O)cc(O)c4C[C@H]3OC(=O)c3cc(O)c(O)c(O)c3)c2c1)c1cc(O)c(O)c(O)c1` [Theaflavin Digallate], on Sucrase, the “Inhibition (%)” value is given as 95.9%.

`O=C(O[C@@H]1Cc2c(O)cc(O)cc2O[C@@H]1c1cc(O)c(=O)c2c(O)c(O)cc([C@H]3Oc4cc(O)cc(O)c4C[C@H]3O)c2c1)c1cc(O)c(O)c(O)c1` [Theaflavin Monogallate A]: at Sucrase, the “Inhibition (%)” value stood at 45.9%.

As for `O=C(O[C@@H]1Cc2c(O)cc(O)cc2O[C@@H]1c1cc(O)c(O)c2c(=O)c(O)cc([C@H]3Oc4cc(O)cc(O)c4C[C@H]3O)cc12)c1cc(O)c(O)c(O)c1` [Theaflavin Monogallate B], the “Inhibition (%)” value at Sucrase was 59.5%.
